According to patent US20230248832A1, “Small Molecule Ligand-Drug Conjugates for Targeted Cancer Therapy” (Emory University, priority 2008, published 2023):
“Also recorded” adds a separate entry of the source. Where two headings read alike, the source gives them in different places.

Experiments:
[1] = system: C4-2 human prostate cancer cells implanted subcutaneously; assay: Subcutaneous C4-2 prostate tumor model; type: in vivo, athymic nude mice; conditions: for incidence of tumor formation: SQ C4-2, i.p., IR783 and IR-MUT1 5 mg/kg daily, taxotere 15 mg/kg twice per week; for apoptosis in SQ C4-2 tumors (histopathology, H/E stain): SQ C4-2 tumors in mice
Protocol: 1 million C4-2 human prostate cancer cells were implanted subcutaneously into the back of the 4 to 6 week old athymic nude mice. […] Tumor diameters were measured with a caliper, and tumor volume in mm^3 is calculated by the formula: Volume=(width)^2×length/2.
Serum PSA levels were used to monitor tumor growth in a C4-2 SQ tumor model. Mice were checked for serum PSA levels before implantation and at 35 and 45 days after tumor cell implantation.
(§1) C4-2 prostate cancer cells were subcutaneously implanted into the back of the 4 to 6 week old athymic nude mice. […] The serum prostate specific antigen (PSA) levels, which indicating the presence of prostate cancers, were monitored during the tumor reduction study.

[2] = system: C4-2 human prostate cancer cells implanted intraosseously into the tibia; assay: Intratibial C4-2 prostate tumor model; type: in vivo, athymic nude mice; conditions: for tumors growing from tibia (incidence): i.p. from 30 days after implantation
Protocol: 1 million C4-2 human prostate cancer cells were implanted intraosseously into the tibia of the 4 to 6 week old athymic nude mice. […] The animals were observed daily and body weights were measured daily. Tumor diameters are measured with calipers, and tumor volume in mm^3 is calculated by the formula: Volume=(width)^2×length×0.5236.
In another tumor model, C4-2 cancer cells were administered intraosseously into the tibia of the 4 to 6 week old athymic nude mice.

cancer cells = assay: Toxicity to cancer cells at day 2 (FIG. 6); type: cell-based; conditions: evaluated at day 2; compared with free nonconjugated drug taxotere
Source text: IR-783 (dye molecule only) is nontoxic. […] This is expected since IR783 conjugated to docetaxel or paclitaxel, accumulation in cells require enzymatic activation, which releases the active taxotere or taxol component inside of the cells to exert cytotoxicity against the growth of cancer cells.

[3] = Body weight during treatment of C4-2 tumor-bearing mice; type: in vivo, athymic nude mice; conditions: i.p.
Source text: During treatment, the body weights were obtained daily.
as §1

cancer [4] = assay: In vitro cancer targeting of IR783 derivatives; type: cell-based
cancer [5] = assay: In vivo cancer targeting of IR783 derivatives
[6] = system: C4-2 human prostate cancer cells; assay: MTT cytotoxicity assay, C4-2; type: cell-based; conditions: C4-2 cells, 48 hrs
Protocol: (§2) C4-2 (FIG. 13A) and P69 (FIG. 13B) cells were plated in 96 well plates (3,000/well). […] (FIG. 13C) SN12C and (FIG. 13D) HEK293 cells were plated in 96 well plates (3,000/well).

[7] = system: P69 normal human prostate epithelial cells; assay: MTT cytotoxicity assay, P69; type: cell-based; conditions: Epithelial cell, 48 hours
Protocol: as §2

[8] = system: SN12C human renal cancer cells; assay: MTT cytotoxicity assay, SN12C; type: cell-based; conditions: 48 hrs
Protocol: as §2

[9] = system: HEK293 human embryonic kidney cells; assay: MTT cytotoxicity assay, HEK293; type: cell-based; conditions: 48 hrs
Protocol: as §2

Row | SMILES | In vitro targeting (cancer [4]) | In vivo targeting (cancer [5]) | further results
1 | CC1(C)C(=CC=C2CCCC(C=CC3=[N+](CCCCS(=O)(=O)[O-])c4ccccc4C3(C)C)=C2Cl)N(CCCCS(=O)(=O)[O-])c2ccccc21.[Na+] [IR-783, reference compound] |  |  | incidence of tumor formation [1]: 9/20; apoptosis in SQ C4-2 tumors (histopathology, H/E stain) [1]: negligible; apoptosis in SQ C4-2 tumors (histopathology, H/E stain) ([1]; listed as IR783): not affected; bone lesions on X-ray [2]: both the osteolytic and osteoblastic lesions were apparently observed; average volume of tumor ([2]; IR-783 group versus IR-MUT1 group): significantly higher; tumors growing from tibia (incidence) [2]: 4/5; bone lesions on X-ray ([2]; listed as IR783): severe osteolytic lesions; toxicity to cancer cells (cancer cells): nontoxic; effect on body weight [3]: no body weight loss
2 | CN1/C(=C/C=C(Cl)/C=C/C2=[N+](C)c3ccc4ccccc4c3C2(C)C)C(C)(C)c2c1ccc1ccccc21 | excellent |  | 
3 | CC1(C)C(/C=C/C2=C(Cl)C(=C/C=C3/N(CCO)c4ccccc4C3(C)C)/CCC2)=[N+](CCO)c2ccccc21 | excellent | low intensity | 
4 | COc1ccc2c(c1)C(C)(C)C(/C=C/C=C/C=C1/N(C)c3ccc(OC)cc3C1(C)C)=[N+]2C.[I-] | excellent |  | 
5 | CC1(C)C(/C=C/C2=C(Cl)C(=C/C=C3/N(CCCCO)c4ccccc4C3(C)C)/CCC2)=[N+](CCCCO)c2ccccc21 | poor | poor | 
6 | I.O=C1C(/C=c2\c3cccc4cccc(c43)n2CCCc2ccccc2)=C([O-])C/1=C/C1=[N+](CCCc2ccccc2)c2cccc3cccc1c23 |  | poor | 
7 | O=C(O)CCCCCn1/c(=C/C=C2\CCCC(/C=C/C3=[N+](CCCCCC(=O)O)c4cccc5cccc3c45)=C2Cl)c2cccc3cccc1c32.[Na+].[Na+] | poor | poor | 
8 | CN1/C(=C/C=C(Cl)/C=C/C2=[N+](C)c3ccccc3C2(C)C)C(C)(C)c2ccccc21.[I-] | excellent |  | 
9 | CC1(C)C(/C=C/C2=C(Cl)C(=C/C=C3/N(CCCCC(=O)O)c4ccccc4C3(C)C)/CCC2)=[N+](CCCCC(=O)[O-])c2ccccc21 | excellent | excellent | 
10 | CC(=O)O[C@@]12CO[C@@H]1C[C@H](O)[C@@]1(C)C(=O)[C@H](O)C3=C(C)[C@@H](OC(=O)[C@H](O)[C@@H](NC(=O)OC(C)(C)C)c4ccccc4)C[C@@](O)([C@@H](OC(=O)c4ccccc4)[C@H]21)C3(C)C [taxotere, docetaxel, reference compound] |  |  | IC50 [6]: 10 nM; IC50 [7]: ~10 nM; IC50 [8]: 12 nM; IC50 [9]: ~600 nM; serum PSA levels ([1]; 35 and 45 days after tumor cell implantation, compared with IR-783 (control) group): greatly depressed; also recorded: dramatically lower; also recorded: significantly lower; incidence of tumor formation [1]: no tumor growing; also recorded: no tumor formed; bone lesions on X-ray [2]: no lesion; tumors growing from tibia (incidence) [2]: 0/5; effect on body weight [3]: noticeably lower
11 | CC1(C)C(/C=C/C2=C(Cl)C(=C/C=C3/N(CCCc4ccccc4)c4ccccc4C3(C)C)/CCC2)=[N+](CCCc2ccccc2)c2ccccc21 | excellent | poor | 
12 | CCn1/c(=C/C=C/C2=[N+](CC)c3cccc4cccc2c34)c2cccc3cccc1c32 | good | poor | 
13 | CC1(C)C(/C=C/C2=C(Cl)C(=C/C=C3/N(CCCCCC(=O)O)c4ccccc4C3(C)C)/CCC2)=[N+](CCCCCC(=O)O)c2ccccc21.[Na+].[Na+] | excellent | excellent | 
14 | CN1/C(=C/C=C2\CCCC(/C=C/C3=[N+](C)c4ccc5ccccc5c4C3(C)C)=C2Cl)C(C)(C)C2=c3ccccc3=CCC21.[I-] (stereo not shown) |  | poor | 
